Data set [1] in a line: xn = mol fraction of the nth substance listed. As to conditions: Liquid.
The conditions of data set [2]: Liquid; for Critical pressure: Direct measurement; for Critical temperature: Visual observation in an unstirred cell.

± gives the expanded uncertainty stated by the source.

The values below come from the NIST ThermoML archive (doi:10.1021/je700123q).

On to `COC(F)(F)F` [trifluoromethoxymethane] + FC(OC(F)(F)F)C(F)(F)F, for which, in data set [1] (x2 = 0), the Critical density amounted to 459 ± 5 kg/m3.

On to `COC(F)(F)F` [trifluoromethoxymethane], for which, in data set [2], the Critical density is 459 ± 5 kg/m3, the Critical pressure was found to be 3640 ± 6 kPa and the Critical temperature was 377.92 ± 0.06 K.

Turning to `COC(F)(F)C(F)(F)F` [methyl pentafluoroethyl ether] + FC(OC(F)(F)F)C(F)(F)F, the Critical density in data set [1] (x2 = 0) was determined as 491 ± 6 kg/m3.

As for `FC(OC(F)(F)F)C(F)(F)F` (stereo not drawn) [1,1,1,2-tetrafluoro-2-(trifluoromethoxy)ethane] + COC(F)(F)F, the Critical density in data set [1] (x1 = 0.1455) was determined as 480 ± 6 kg/m3; in data set [1] (x1 = 0.2585) it was 506 ± 6 kg/m3; in data set [1] (x1 = 0.4147) it was 523 ± 6 kg/m3; in data set [1] (x1 = 0.5954), 539 ± 6 kg/m3; in data set [1] (x1 = 0.7403) it was 558 ± 7 kg/m3; in data set [1] (x1 = 1), 580 ± 7 kg/m3.

For `COC(F)(F)C(F)(F)F` [methyl pentafluoroethyl ether], in data set [2], the Critical density came to 491 ± 6 kg/m3, the Critical pressure was 2885 ± 6 kPa and the Critical temperature is given as 406.82 ± 0.06 K.

`FC(OC(F)(F)F)C(F)(F)F` (stereo not drawn) [1,1,1,2-tetrafluoro-2-(trifluoromethoxy)ethane]: in data set [2], the Critical density is on record as 580 ± 4 kg/m3, the Critical pressure is given as 2621 ± 4 kPa and the Critical temperature worked out at 377.26 ± 0.06 K.

For `FC(OC(F)(F)F)C(F)(F)F` (stereo not drawn) [1,1,1,2-tetrafluoro-2-(trifluoromethoxy)ethane] + COC(F)(F)C(F)(F)F, the Critical density in data set [1] (x1 = 0.1694) turned out to be 510 ± 6 kg/m3; in data set [1] (x1 = 0.2941), 521 ± 6 kg/m3; in data set [1] (x1 = 0.4706) it was 536 ± 6 kg/m3; in data set [1] (x1 = 0.6565) it was 554 ± 6 kg/m3; in data set [1] (x1 = 0.7952), 566 ± 7 kg/m3; in data set [1] (x1 = 1) it was 580 ± 7 kg/m3.
